Data: patent US10071974B2, “Morpholine and 1,4-oxazepane amides as somatostatin receptor subtype 4 (SSTR4) agonists” (Boehringer Ingelheim International GmbH, priority 2014, dated 2018)
Like-named read-outs stand apart in the source and are kept apart here.

What was measured:
[1] = Metabolic stability in pooled human liver microsomes; settings: 1 μM test compound, 37° C.
[2] = target: human Somatostatin 4 Receptor (SSTR4) (Homo sapiens (Human), UniProt P31391); experiment: cAMP assay with human somatostatin 4 receptor (hSSTR4 expressing H4 cells); format: cell-based; settings: read-out: SSTR4 agonism EC50
Sequence of human Somatostatin 4 Receptor (SSTR4) (P31391 whole entry): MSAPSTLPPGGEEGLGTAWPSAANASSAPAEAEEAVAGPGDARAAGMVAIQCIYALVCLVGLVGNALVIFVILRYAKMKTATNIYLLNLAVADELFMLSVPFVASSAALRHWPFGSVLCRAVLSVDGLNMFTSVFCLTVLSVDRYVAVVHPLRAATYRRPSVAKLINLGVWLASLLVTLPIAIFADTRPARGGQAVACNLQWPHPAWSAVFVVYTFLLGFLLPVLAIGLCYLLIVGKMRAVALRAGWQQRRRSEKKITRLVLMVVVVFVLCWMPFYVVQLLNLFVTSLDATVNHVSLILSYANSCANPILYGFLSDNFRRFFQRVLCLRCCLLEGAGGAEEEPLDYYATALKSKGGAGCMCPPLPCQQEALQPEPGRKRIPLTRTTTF

in vitro = settings: human, microsomes, pH 7.6
human SSTR2 = human SSTR2 (Homo sapiens (Human), UniProt P30874); experiment: Radioligand binding assay, CHO cell membranes expressing recombinant human SSTR2
Sequence of human SSTR2 (P30874 whole entry): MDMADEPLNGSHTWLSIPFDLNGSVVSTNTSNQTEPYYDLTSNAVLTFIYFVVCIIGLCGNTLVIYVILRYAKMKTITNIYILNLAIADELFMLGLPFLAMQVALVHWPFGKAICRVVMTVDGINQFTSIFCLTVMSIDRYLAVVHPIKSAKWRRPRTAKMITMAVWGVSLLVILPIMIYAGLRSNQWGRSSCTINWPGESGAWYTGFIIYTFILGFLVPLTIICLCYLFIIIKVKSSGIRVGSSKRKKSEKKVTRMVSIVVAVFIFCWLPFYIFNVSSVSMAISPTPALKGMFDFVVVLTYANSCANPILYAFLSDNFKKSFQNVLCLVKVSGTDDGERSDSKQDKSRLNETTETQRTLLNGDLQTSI
Excerpt: (§1) Radioligand Binding Assays
(§2) Method description for binding assays with human Somatostatin receptors by use of CHO cell membranes expressing recombinant human SSTR1 or human SSTR2 or human SSTR3 or human SSTR4 or human SSTR5
(§3) Receptor binding assays refer to a technique in which labeled receptor ligands are used to detect binding to a receptor. In competition experiments test compounds, which are not labeled, compete with the binding side of a labeled ligand. The displacement of the labeled ligand by the test compound leads to a decreased signal.
(§4) For the binding experiments 200 μL of membrane homogenate from one of the following protein amounts is used: hSSTR1 (40 μg/well); hSSTR2 (25 μg/well); hSSTR3 (1.5 μg/well); hSSTR4 (0.5 μg/well); hSSTR5 (25 μg/well). The homogenate is incubated with 0.05 nM of radioligand ([3-125I-Tyr]-Somatostatin-(1-14)) in addition to increasing concentrations of a test compound or vehicle (100% binding) in a total volume of 250 μL using a Hepes buffer (10 mM, EDTA 1 mM, MgCl2 5 mM, pH7.6, BSA 0.5%, Bacitracin 0.003%, DMSO 1%) for 180 min at room temperature. The incubation is terminated by filtration with ice cold NaCl 0.9% through polyethyleneimine treated (0.3%) GF/B glass fiber filters using a cell harvester. The protein-bound radioactivity is measured in a suitable reader. The non-specific binding is defined as radioactivity bound in the presence of 1 μM Somatostatin-14 during the incubation period.
(§5) The analysis of the concentration-binding curves is performed by computer-assisted nonlinear least square curve fitting method using the model of one receptor binding site.
(§6) Selectivity data was obtained with the aid of the above described radioligand binding assays.

human SSTR4 = human SSTR4 (Homo sapiens (Human), UniProt P31391); experiment: Radioligand binding assay, CHO cell membranes expressing recombinant human SSTR4
Sequence of human SSTR4 (P31391 whole entry): as the sequence (P31391 whole entry) above
Excerpt: as §1, §2, §3, §4, §5, §6

human SSTR1 = human SSTR1 (Homo sapiens (Human), UniProt P30872); experiment: Radioligand binding assay, CHO cell membranes expressing recombinant human SSTR1
Sequence of human SSTR1 (P30872 whole entry): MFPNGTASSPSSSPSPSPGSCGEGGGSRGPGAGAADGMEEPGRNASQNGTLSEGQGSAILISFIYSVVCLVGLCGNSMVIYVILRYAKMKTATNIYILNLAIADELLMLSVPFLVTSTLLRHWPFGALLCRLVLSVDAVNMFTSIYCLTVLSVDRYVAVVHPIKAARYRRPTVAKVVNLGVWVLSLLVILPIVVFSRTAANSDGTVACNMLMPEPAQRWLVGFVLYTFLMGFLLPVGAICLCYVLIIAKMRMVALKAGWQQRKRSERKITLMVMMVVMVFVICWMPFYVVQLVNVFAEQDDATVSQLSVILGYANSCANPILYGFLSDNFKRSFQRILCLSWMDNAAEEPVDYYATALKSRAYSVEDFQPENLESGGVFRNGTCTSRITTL
Excerpt: as §1, §2, §3, §4, §5, §6

human SSTR5 = human SSTR5 (Homo sapiens (Human), UniProt P35346); experiment: Radioligand binding assay, CHO cell membranes expressing recombinant human SSTR5
Sequence of human SSTR5 (P35346 whole entry): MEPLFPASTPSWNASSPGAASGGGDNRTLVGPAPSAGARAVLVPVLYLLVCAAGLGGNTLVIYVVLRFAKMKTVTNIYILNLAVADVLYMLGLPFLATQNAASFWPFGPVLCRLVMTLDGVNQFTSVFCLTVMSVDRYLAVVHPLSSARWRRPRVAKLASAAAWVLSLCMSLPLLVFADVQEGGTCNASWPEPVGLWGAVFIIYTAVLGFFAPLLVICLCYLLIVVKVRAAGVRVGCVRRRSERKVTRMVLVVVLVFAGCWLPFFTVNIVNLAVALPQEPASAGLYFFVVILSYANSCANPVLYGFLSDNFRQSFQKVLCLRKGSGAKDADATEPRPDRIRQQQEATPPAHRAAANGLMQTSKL
Excerpt: as §1, §2, §3, §4, §5, §6

human SSTR3 = human SSTR3 (Homo sapiens (Human), UniProt P32745); experiment: Radioligand binding assay, CHO cell membranes expressing recombinant human SSTR3
Sequence of human SSTR3 (P32745 whole entry): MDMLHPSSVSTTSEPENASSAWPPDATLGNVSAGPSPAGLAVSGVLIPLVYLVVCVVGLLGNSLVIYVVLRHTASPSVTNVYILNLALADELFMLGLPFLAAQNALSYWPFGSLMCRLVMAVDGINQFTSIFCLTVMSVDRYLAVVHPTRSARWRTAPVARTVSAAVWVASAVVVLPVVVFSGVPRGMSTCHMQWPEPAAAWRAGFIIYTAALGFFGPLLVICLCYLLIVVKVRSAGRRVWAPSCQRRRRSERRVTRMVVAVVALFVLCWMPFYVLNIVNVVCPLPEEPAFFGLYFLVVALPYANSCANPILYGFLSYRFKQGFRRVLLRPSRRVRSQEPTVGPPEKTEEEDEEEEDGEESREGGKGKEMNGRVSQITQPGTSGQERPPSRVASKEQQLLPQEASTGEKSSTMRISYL
Excerpt: as §1, §2, §3, §4, §5, §6

[3] = human, microsomes

Row | Compound | Half-life t1/2 [1] [h] | EC50 [2] [µM] | half-life at 1 μM (in vitro) [h] | Ki (human SSTR2) [µM] | Ki (human SSTR4) [µM] | Ki (human SSTR1) [µM] | Ki (human SSTR5) [µM] | Ki (human SSTR3) [µM] | Half-life t1/2 [3] [h]
1 | CC(C)(NC(=O)C1CNCCOC1)c1noc2c(Cl)cccc12 (single isomer, unassigned) [Example 73] |  |  |  |  |  |  |  |  | >2.17
2 | Cn1nc(C(C)(C)NC(=O)[C@@H]2CNCCO2)c2cccc(Cl)c21 [Example 79] | 1.67 |  |  |  |  |  |  |  | 
3 | Cn1nc(C(C)(C)NC(=O)C2CNCCCO2)c2ccccc21 (single isomer, unassigned) [Example 24] |  | 0.0362 | > 2.17 | 9.6 | 0.523 | 9.45 | 9.75 | 8.62 | 

Other lines, results leading:

Row | Half-life t1/2 [1] [h] | EC50 [2] [µM] | half-life at 1 μM (in vitro) [h] | Ki (human SSTR2) [µM] | Ki (human SSTR4) [µM] | Ki (human SSTR1) [µM] | Ki (human SSTR5) [µM] | Ki (human SSTR3) [µM] | Half-life t1/2 [3] [h] | Compound
4 | >2.17 | 0.0041 |  |  |  |  |  |  |  | Cc1cccc2c(C(C)(C)NC(=O)[C@@H]3CNCCO3)nn(C)c12 [Example 83]
5 |  | 0.0032 | > 2.17 | 9.6 | 0.0892 | 9.45 | 9.75 | 8.62 |  | Cn1nc(C(C)(C)NC(=O)C2CNCCOC2)c2ccccc21 (single isomer, unassigned) [Example 21]
6 |  | 0.0045 | > 2.17 | 9.63 | 0.218 | 9.48 | 9.77 | 8.69 |  | Cc1cccn2c(C(C)(C)NC(=O)[C@@H]3CNCCO3)ncc12 [Example 95]
7 |  | 0.0133 | > 2.17 | 9.63 | 0.194 | 9.01 | 9.86 | 8.71 |  | Cn1nc(C(C)(C)NC(=O)[C@@H]2CNCCO2)c2ccccc21 [Example 19]
